In patent publication US9585880B2, “Cyclic amino compounds for use in the treatment of cardiac disorders” (Universitetet I Oslo, priority 2013, dated 2017):
Structures can show the parent of a compound that is named as a salt. Where two headings read alike, the source gives them in different places.

Molecular target: AKAP18δ-PLB interaction (UniProt P26678+Q6JP77)
Test: AlphaScreen binding assay of the GST-AKAP18δ : PLB-biotin interaction
Description: Stable and optimal assay conditions were determined by cross-titrating GST-AKAP186 and biotinylated PLB using 10 μg/ml glutathione acceptor beads and 10 μg/ml streptavidin donor beads in an AlphaScreen assay. The excitation wavelength was 680 nm, with the emission wavelength being 520-560 nm. Signal intensity in each well was registered and the optimal concentration to use was chosen to be the concentration prior to the peak of the signal.
Concentrations to give a reliable signal were determined to be between 2 and 16 nM for AKAP18δ-GST and 4 and 20 nM PLB-biotin for relevant preparations of protein, for example 4 nM and 20 nM, respectively.
compound library was screened with the above assay.
The compounds of Examples 2-10 were tested for pharmacological activity using the Binding Assay described above. The compounds of Examples 2-10 were dissolved in DMSO to a concentration of 10 mM, diluted in aqueous solution and tested for their ability to disrupt the AKAP18δ-PLB interaction at different concentrations in the AlphaScreen binding assay as described above.
Signal intensity was recorded at each concentration of compound. Maximal signal representing full interaction between AKAP186 and PLB at 0 μM compound was set to 100% and loss of signal (due to compound disruption of the protein-protein interaction) plotted against log [conc compound] and curves fitted in SigmaPlot (see FIGS. 2a-2i).

[1] = compound library screen, Table 1 compounds similar to those of formula (I), read-out: EC50
[2] = half-maximal disruption of AKAP18δ-PLB signal, compounds of Examples 2-10, read-out: EC50

Sequence of AKAP18δ-PLB interaction (Q6JP77 whole entry): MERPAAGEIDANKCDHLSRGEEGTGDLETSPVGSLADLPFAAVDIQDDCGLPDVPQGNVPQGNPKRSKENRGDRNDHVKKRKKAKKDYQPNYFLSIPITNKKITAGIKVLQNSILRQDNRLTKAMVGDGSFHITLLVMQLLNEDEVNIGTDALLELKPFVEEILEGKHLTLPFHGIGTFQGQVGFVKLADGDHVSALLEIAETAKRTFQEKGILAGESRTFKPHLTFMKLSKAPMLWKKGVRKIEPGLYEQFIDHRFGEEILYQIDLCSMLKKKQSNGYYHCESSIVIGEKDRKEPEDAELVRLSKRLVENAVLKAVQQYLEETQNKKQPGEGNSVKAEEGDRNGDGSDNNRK
Sequence of AKAP18δ-PLB interaction (P26678 whole entry): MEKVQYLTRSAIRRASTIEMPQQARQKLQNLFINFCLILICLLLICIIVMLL

Row | EC50 [1] [mM] | SMILES | other results
1 | 0.0416 | CC(C)(C)c1ccc(CN(Cc2ccc(F)cc2)Cc2nc(C(=O)O)cs2)cc1 | 
2 | 0.137 | Cc1ccc(CN(Cc2ccc(F)cc2)Cc2nc(C(=O)O)cs2)cc1 | 
3 | 0.018 | O=C(O)c1csc(CN(CCC(c2ccccc2)c2ccccc2)Cc2ccc(F)cc2)n1 | 
4 | 0.0256 | COc1ccc(CN(Cc2ccc(F)cc2)Cc2nc(C(=O)O)cs2)cc1 | 
5 | 0.0364 | O=C(O)c1csc(CN(Cc2ccc(F)cc2)Cc2cccc(Cl)c2)n1 | 
6 | 0.0395 | O=C(O)c1csc(CN(Cc2ccc(F)cc2)Cc2ccc(OCc3ccccc3)cc2)n1 | 
7 | 0.0605 | O=C(O)c1csc(CN(Cc2ccc(F)cc2)Cc2cccc(C(F)(F)F)c2)n1 | 
8 | 0.0943 | O=C(O)c1csc(CN(Cc2ccc(F)cc2)Cc2ccc(Cl)cc2)n1 | 
9 | 0.0983 | Cc1ccc(CN(Cc2cccc(C(F)(F)F)c2)Cc2nc(C(=O)O)cs2)cc1 | 
10 | 0.216 | O=C(O)c1csc(CN(Cc2cccc(C(F)(F)F)c2)Cc2ccccc2F)n1 | 

The remaining lines, values behind:

Row | SMILES | EC50 [1] [mM] | other results
11 | O=C(O)c1csc(CN(CCC(c2ccccc2)c2ccccc2)Cc2ccccc2F)n1 | 0.0106 | 
12 | CC(C)(C)c1ccc(CN(CCC(c2ccccc2)c2ccccc2)Cc2nc(C(=O)O)cs2)cc1 | 0.0211 | 
13 | Cc1ccc(CN(CCC(c2ccccc2)c2ccccc2)Cc2nc(C(=O)O)cs2)cc1 | 0.0354 | 
14 | O=C(O)c1ccc(CN(Cc2ccccc2)Cc2ccc(C(=O)O)cc2)cc1 | 0.0296 | 
15 | Nc1ccc(CN(Cc2ccccc2)Cc2ccc(N)cc2)cc1 | 0.0038 | 
16 | CCN(CC)c1ccc(CN(Cc2ccccc2)Cc2ccc(N(CC)CC)cc2)cc1 | 0.0029 | 
17 | Nc1ccc(CN(Cc2ccc(N)cc2)Cc2ccc(N)cc2)cc1 | 0.0222 | 
18 | Cc1ccc(NC(=O)Nc2ccc(CN(Cc3ccccc3)Cc3ccc(NC(=O)Nc4ccc(C)cc4)cc3)cc2)cc1 | 0.0025 | 
19 | O=[N+]([O-])c1ccc(CN(Cc2ccccc2)Cc2ccc([N+](=O)[O-])cc2)cc1 | 0.0075 | 
20 | O=C(Nc1ccc(F)cc1)Nc1ccc(CN(Cc2ccccc2)Cc2ccc(NC(=O)Nc3ccc(F)cc3)cc2)cc1 | 0.0093 | 
21 | O=C(Nc1ccccc1)Nc1ccc(CN(Cc2ccccc2)Cc2ccc(NC(=O)Nc3ccccc3)cc2)cc1 | 0.0036 | 
22 | Cc1ccc(NC(=O)Nc2ccc(CN(Cc3ccc(NC(=O)Nc4ccc(C)cc4)cc3)Cc3ccc(NC(=O)Nc4ccc(C)cc4)cc3)cc2)cc1 | 0.0052 | 
23 | CN(C)c1ccc(CN(Cc2ccccc2)Cc2ccc(N(C)C)cc2)cc1 | 0.002 | 
24 | Cc1ccc(CN2CCc3ccccc3C2)cc1 [Compound 2, N-4-methyl-benzyl-1,2,3,4-tetrahydroisoquinoline] |  | EC50 [2]: 0.142 mM
25 | CC(C)(C)c1ccc(CN2CCc3ccccc3C2)cc1 [Compound 3, N-4-t-butyl-benzyl-1,2,3,4-tetrahydroisoquinoline hydrochloride salt] |  | EC50 [2]: 0.0553 mM
26 | Cl.c1ccc(CN2CCc3ccccc3C2)cc1 [Compound 4, N-4-benzyl-1,2,3,4-tetrahydroisoquinoline hydrochloride salt] |  | EC50 (half-maximal disruption of AKAP18δ-PLB signal, compounds of Examples 2-10, value in mM): single-digit; EC50 (half-maximal disruption of AKAP18δ-PLB signal, compounds of Examples 2-10, value in mM, read-out: EC50): 6.5 mM
27 | Brc1ccc(CN2CCc3ccccc3C2)cc1 [Compound 5, N-4-bromo-benzyl-1,2,3,4-tetrahydroisoquinoline hydrochloride salt] |  | EC50 [2]: 0.0645 mM
28 | O=[N+]([O-])c1ccc(CN2CCc3ccccc3C2)cc1 [Compound 6, N-4-nitro-benzyl-1,2,3,4-tetrahydroisoquinoline] |  | EC50 [2]: 0.0715 mM
29 | c1ccc(CN2Cc3ccccc3C2)cc1 [Compound 7, N-benzyl-isoindoline hydrochloride salt] |  | EC50 [2]: 0.207 mM
30 | c1ccc2c(c1)CN(Cc1ccncc1)C2 [Compound 8, N-4-methylpyridyl-isoindoline] |  | EC50 [2]: 0.0718 mM
